{
  "source": "patent EP3381898A1",
  "about": "“SYMMETRICAL TRIS-ARYL-AMIDE DERIVATIVES AND THEIR USE AS ANTI-HEPARANASE” (priority 2017, dated 2018)",
  "biological_target": "T1, heparanase (Homo sapiens, UniProt Q9Y251)",
  "T1 sequence (Q9Y251 158-543 limits assumed)": "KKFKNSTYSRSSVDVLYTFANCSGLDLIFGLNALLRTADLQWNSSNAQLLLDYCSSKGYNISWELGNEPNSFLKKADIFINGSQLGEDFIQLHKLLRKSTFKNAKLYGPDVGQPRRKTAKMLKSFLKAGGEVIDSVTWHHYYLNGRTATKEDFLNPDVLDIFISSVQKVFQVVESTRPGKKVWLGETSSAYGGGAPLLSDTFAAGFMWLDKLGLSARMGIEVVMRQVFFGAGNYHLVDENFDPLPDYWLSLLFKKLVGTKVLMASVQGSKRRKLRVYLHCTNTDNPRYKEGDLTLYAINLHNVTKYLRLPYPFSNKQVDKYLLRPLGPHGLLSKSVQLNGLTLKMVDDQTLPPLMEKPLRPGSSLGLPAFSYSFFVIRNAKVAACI",
  "T1 sequence (Q9Y251 36-109 limits assumed)": "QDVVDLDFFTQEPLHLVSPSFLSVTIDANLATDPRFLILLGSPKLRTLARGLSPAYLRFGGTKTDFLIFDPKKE",
  "assay": "AGA*IA assay: heparanase-catalyzed fondaparinux cleavage, colorimetric (WST-1)",
  "assay_type": "biochemical",
  "settings": "Table 1; range activity classes, AGA*IA test on Fondaparinux; read-out: AGAIA assay IC50",
  "experimental": "All compounds were tested in a simple, accurate and robust microplate assay based on the cleavage of the synthetic heparin fragment, the pentasaccharide Fondaparinux (AGA*IA). This assay was originally developed by Hammond and coworkers (Hammond E, Li CP, Ferro V. Development of a colorimetric assay for heparanase activity suitable for kinetic analysis and inhibitor screening. Anal. Biochem. 396(1), 112-116 (2010)), where Fondaparinux corresponds to the methyl glycoside of the antithrombin III (ATIII)-activating pentasaccharide sequence of heparin. Fondaparinux is cleaved by heparanase to generate a reducing disaccharide, which can be quantitatively measured via a colorimetric or a fluorescence assay, the last by the fluorescent sensor polymer-H [Schiemann S, Lühn S, Alban S. Development of both colorimetric and fluorescence heparinase activity assays using fondaparinux as substrate. Anal. Biochem. 427(1), 82-89 (2012)].\nThe assay measures the appearance of the disaccharide product of heparanase-catalyzed fondaparinux cleavage colorimetrically using the tetrazolium salt WST-1. Assay was essentially performed as described with minor modifications. Briefly, NUNC ELISA 96-well plates were pre-treated with a solution of 4% BSA (bovin serum albumin) in phosphate-buffered saline containing 0.05% Tween 20 (PBST), for 2 h at 37°C, then washed three times with PBST, dried by tapping on paper towel and stored at -20°C. Before use, once again, the plates were washed with PBST.\nAssay was carried out with 100 µl/well of assay solution containing 40 mM sodium acetate buffer (pH 5.0), 100 µM fondaparinux, 2.5 nM heparanase and serial dilutions of test compounds (tested in triplicate). Plates were sealed with adhesive tape and incubated, in the dark, for 3 h at 37°C, followed by development with 1.69 mM of the tetrazolium salt WST-1 solution in 0.1 M NaOH, for 1 h at 60°C. Then, the absorbance at 560 nm was measured through a microplate reader (Victor 3, Perkin Elmer).\nFinally, the measurements were corrected by subtracting both the reagent background and the inner absorbance value of test compound.",
  "note": "Where a name gives a salt, the structure may show the parent alone.",
  "data": [
    {"smiles": "CC(C)CC(NC(=O)Cc1cccc(NC(=O)c2cc(NC(=O)c3cccc(NC(=O)Nc4cccc(C(=O)Nc5cc(C(=O)Nc6cccc(CC(=O)NC(CC(C)C)C(=O)O)c6)n(C)c5)c4)c3)cn2C)c1)C(=O)O", "note": "(stereo not drawn) [Compound 12a, 2,2'-{carbonylbis[imino-3,1-phenylenecarbonylimino(1-methyl-1H-pyrrole-4,2-diyl)carbonylimino-3,1-phenylene(1-oxoethane-2,1-diyl)imino]}bis(4-methylpentanoic acid)]", "values": [
      {"measurement": "IC50", "result": "1 to 20", "unit": "µM"}
    ]},
    {"smiles": "Cn1cc(NC(=O)c2cccc(NC(=O)Nc3cccc(C(=O)Nc4cc(C(=O)Nc5cccc(CC(=O)N[C@@H](CCCCN)C(=O)O)c5)n(C)c4)c3)c2)cc1C(=O)Nc1cccc(CC(=O)N[C@@H](CCCCN)C(=O)O)c1", "note": "[Compound 12c, 5,5'-{carbonylbis[imino-3,1-phenylenecarbonylimino(1-methyl-1H-pyrrole-4,2-diyl)carbonylimino-3,1-phenylene(1-oxoethane-2,1-diyl)imino]}bis(1-aminium-6-hexanoic acid) trifluoroacetate salt]", "values": [
      {"measurement": "IC50", "result": "1 to 20", "unit": "µM"}
    ]},
    {"smiles": "CC(NC(=O)Cc1cccc(NC(=O)c2cc(NC(=O)c3cccc(NC(=O)Nc4cccc(C(=O)Nc5cc(C(=O)Nc6cccc(CC(=O)NC(C)C(=O)O)c6)n(C)c5)c4)c3)cn2C)c1)C(=O)O", "note": "(stereo not drawn) [Compound 12d, 2,2'-{carbonylbis[imino-3,1-phenylenecarbonylimino(1-methyl-1H-pyrrole-4,2-diyl)carbonylimino-3,1-phenylene(1-oxoethane-2,1-diyl)imino]}dipropanoic acid]", "values": [
      {"measurement": "IC50", "result": "1 to 20", "unit": "µM"}
    ]},
    {"smiles": "Cn1cc(NC(=O)c2cccc(NC(=O)Nc3cccc(C(=O)Nc4cc(C(=O)Nc5cccc(CC(=O)N[C@@H](CCC(=O)O)C(=O)O)c5)n(C)c4)c3)c2)cc1C(=O)Nc1cccc(CC(=O)N[C@@H](CCC(=O)O)C(=O)O)c1", "note": "[Compound 12f, 2,2'-{carbonylbis[imino-3,1-phenylenecarbonylimino(1-methyl-1H-pyrrole-4,2-diyl)carbonylimino-3,1-phenylene(1-oxoethane-2,1-diyl)imino]}dipentandioic acid]", "values": [
      {"measurement": "IC50", "result": "1 to 20", "unit": "µM"}
    ]},
    {"smiles": "Cn1cc(NC(=O)c2cccc(NC(=O)Nc3cccc(C(=O)Nc4cc(C(=O)Nc5cccc(CC(=O)O)c5)n(C)c4)c3)c2)cc1C(=O)Nc1cccc(CC(=O)O)c1", "note": "[Compound 12h, 2,2'-(((4,4'-((3,3'-(Carbonylbis(azanediyl))bis(benzoyl))bis(azanediyl))bis(1-methyl-1H-pyrrole-4,2-diyl-2-carbonyl))bis(azanediyl))bis(3,1-phenylene))diacetic acid]", "values": [
      {"measurement": "IC50", "result": "1 to 20", "unit": "µM"}
    ]},
    {"smiles": "Cn1cc(NC(=O)c2cccc(NC(=O)Nc3cccc(C(=O)Nc4cc(C(=O)Nc5ccc(CC(=O)O)cc5)n(C)c4)c3)c2)cc1C(=O)Nc1ccc(CC(=O)O)cc1", "note": "[Compound 12j, 2,2'-(((4,4'-((3,3'-(carbonylbis(azanediyl))bis(benzoyl))bis(azanediyl))bis(1-methyl-1H-pyrrole-2,2'-carbonyl))bis(azanediyl))bis(4,1-phenylene))diacetic acid]", "values": [
      {"measurement": "IC50", "result": "1 to 20", "unit": "µM"}
    ]},
    {"smiles": "Cn1cc(NC(=O)c2cccc(NC(=O)Nc3cccc(C(=O)Nc4cc(C(=O)Nc5cccc(CC(=O)NCC(=O)NCC(=O)O)c5)n(C)c4)c3)c2)cc1C(=O)Nc1cccc(CC(=O)NCC(=O)NCC(=O)O)c1", "note": "[Compound 13b, Disodium 2,2'-{carbonylbis[imino-3,1-phenylenecarbonylimino(1-methyl-1H-pyrrole-4,2-diyl)carbonylimino-3,1-phenylene(1-oxoethane-2,1-diyl)imino(1-oxoethane-2,1-diyl)imino]}diethanoate salt]", "values": [
      {"measurement": "IC50", "result": "1 to 20", "unit": "µM"}
    ]},
    {"smiles": "CC(C)CC(NC(=O)Cc1cccc(NC(=O)c2cc(NC(=O)c3cc(NC(=O)Nc4cc(C(=O)Nc5cc(C(=O)Nc6cccc(CC(=O)NC(CC(C)C)C(=O)O)c6)n(C)c5)n(C)c4)cn3C)cn2C)c1)C(=O)O", "note": "(stereo not drawn) [Compound 17a, 2,2'-{carbonylbis[imino(1-methyl-1H-pyrrole-4,2-diyl)carbonylimino(1-methyl-1H-pyrrole-4,2-diyl)carbonylimino-3,1-phenylene(1-oxoethane-2,1-diyl)imino]}bis(4-methylpentanoic acid)]", "values": [
      {"measurement": "IC50", "result": "1 to 20", "unit": "µM"}
    ]},
    {"smiles": "C[C@H](NC(=O)Cc1cccc(NC(=O)c2cc(NC(=O)c3cc(NC(=O)Nc4cc(C(=O)Nc5cc(C(=O)Nc6cccc(CC(=O)N[C@@H](C)C(=O)O)c6)n(C)c5)n(C)c4)cn3C)cn2C)c1)C(=O)O", "note": "[Compound 17d, 2,2'-{carbonylbis[imino(1-methyl-1H-pyrrole-4,2-diyl)carbonylimino(1-methyl-1H-pyrrole-4,2-diyl)carbonylimino-3,1-phenylene(1-oxoethane-2,1-diyl)imino]}dipropanoic acid]", "values": [
      {"measurement": "IC50", "result": "1 to 20", "unit": "µM"}
    ]},
    {"smiles": "Cn1cc(NC(=O)Nc2cc(C(=O)Nc3cc(C(=O)Nc4cccc(CC(=O)N[C@@H](CCC(=O)O)C(=O)O)c4)n(C)c3)n(C)c2)cc1C(=O)Nc1cc(C(=O)Nc2cccc(CC(=O)N[C@@H](CCC(=O)O)C(=O)O)c2)n(C)c1", "note": "[Compound 17f, 2,2'-{carbonylbis[imino-3,1-phenylenecarbonylimino(1-methyl-1H-pyrrole-4,2-diyl)carbonylimino-3,1-phenylene(1-oxoethane-2,1-diyl)imino]}dipentandioic acid]", "values": [
      {"measurement": "IC50", "result": "1 to 20", "unit": "µM"}
    ]},
    {"smiles": "Cn1cc(NC(=O)Nc2cc(C(=O)Nc3cc(C(=O)Nc4cccc(CC(=O)N[C@@H](CCCCN)C(=O)O)c4)n(C)c3)n(C)c2)cc1C(=O)Nc1cc(C(=O)Nc2cccc(CC(=O)N[C@@H](CCCCN)C(=O)O)c2)n(C)c1", "note": "[Compound 35c, (2S,2'S)-2,2'-((2,2'-(((4,4'-((4,4'-(carbonylbis(azanediyl))bis(1-methyl-1H-pyrrole-4,2-diyl-2-carbonyl))bis(azanediyl))bis(1-methyl-1H-pyrrole-4,2-diyl-2-carbonyl))bis(azanediyl))bis(3,1-phenylene))bis(acetyl))bis(azanediyl))bis(6-aminohexanoic acid) dihydrochloride]", "values": [
      {"measurement": "IC50", "result": "1 to 20", "unit": "µM"}
    ]},
    {"smiles": "CC(C)C[C@H](NC(=O)Cc1cccc(NC(=O)c2cc(NC(=O)c3ccc(Oc4ccc(C(=O)Nc5cc(C(=O)Nc6cccc(CC(=O)N[C@@H](CC(C)C)C(=O)O)c6)n(C)c5)cc4)cc3)cn2C)c1)C(=O)O", "note": "[Compound 36a, (2S,2'S)-2,2'-((2,2'-(((4,4'-((4,4'-Oxybis(benzoyl))bis(azanediyl))bis(1-methyl-1H-pyrrole-2,2'-carbonyl))bis(azanediyl))bis(3,1-phenylene))bis(acetyl))bis(azanediyl))bis(4-methylpentanoic acid)]", "values": [
      {"measurement": "IC50", "result": "1 to 20", "unit": "µM"}
    ]},
    {"smiles": "Cn1cc(NC(=O)c2ccc(Oc3ccc(C(=O)Nc4cc(C(=O)Nc5cccc(CC(=O)NCC(=O)O)c5)n(C)c4)cc3)cc2)cc1C(=O)Nc1cccc(CC(=O)NCC(=O)O)c1", "note": "[Compound 36b, 2,2'-((2,2'-(((4,4'-((4,4'-Oxybis(benzoyl))bis(azanediyl))bis(1-methyl-1H-pyrrole-2,2'-carbonyl))bis(azanediyl))bis(3,1-phenylene))bis(acetyl))bis(azanediyl))diacetic acid]", "values": [
      {"measurement": "IC50", "result": "1 to 20", "unit": "µM"}
    ]},
    {"smiles": "Cn1cc(NC(=O)c2ccc(Oc3ccc(C(=O)Nc4cc(C(=O)Nc5cccc(CC(=O)N[C@@H](CCCCN)C(=O)O)c5)n(C)c4)cc3)cc2)cc1C(=O)Nc1cccc(CC(=O)N[C@@H](CCCCN)C(=O)O)c1", "note": "[Compound 36c, (2S,2'S)-2,2'-((2,2'-(((4,4'-((4,4'-oxybis(benzoyl))bis(azanediyl))bis(1-methyl-1H-pyrrole-4,2-diyl-2-carbonyl))bis(azanediyl))bis(3,1-phenylene))bis(acetyl))bis(azanediyl))bis(6-aminohexanoic acid) dihydrochloride]", "values": [
      {"measurement": "IC50", "result": "1 to 20", "unit": "µM"}
    ]},
    {"smiles": "C[C@H](NC(=O)Cc1cccc(NC(=O)c2cc(NC(=O)c3ccc(Oc4ccc(C(=O)Nc5cc(C(=O)Nc6cccc(CC(=O)N[C@@H](C)C(=O)O)c6)n(C)c5)cc4)cc3)cn2C)c1)C(=O)O", "note": "[Compound 36d, (2S,2'S)-2,2'-((2,2'-(((4,4'-((4,4'-Oxybis(benzoyl))bis(azanediyl))bis(1-methyl-1H-pyrrole-2,2'-carbonyl))bis(azanediyl))bis(3,1-phenylene))bis(acetyl))bis(azanediyl))dipropanoic acid]", "values": [
      {"measurement": "IC50", "result": "1 to 20", "unit": "µM"}
    ]}
  ]
}
